Source: patent publication US20050090399A1, “Phenyl substituted heterocyclic compounds useful as herbicides” (priority 2002, published 2005)

What was measured:
[1] = tested on: Agrostis (Agr); test: Pre-emergence herbicidal action, greenhouse pot test: Agrostis; type: in vivo; settings: 125 g/ha
Procedure: (§1) Monocotyledonous and dicotyledonous weeds and summer wheat (Lona) are sown in standard soil in plastics pots. Directly after sowing, the test compounds are applied as EC 125 and WP 10 (without additional surface-active compounds). The rate of application is 125 g of active substance per ha. The test plants are then grown on in the greenhouse under optimum conditions. Evaluation is carried out 20 days after application: 100 denotes 100% damage to the plant in question.
(§2) Test plants: Agrostis (Agr), Alopecurus (Alo), Phalaris (Pha), Lolium (Lol) and Setaria (Set).

[2] = tested on: Alopecurus (Alo); test: Pre-emergence herbicidal action, greenhouse pot test: Alopecurus; type: in vivo; settings: 125 g/ha
Procedure: as §1, §2

[3] = tested on: summer wheat (Lona); test: Pre-emergence herbicidal action, greenhouse pot test: damage to summer wheat; type: in vivo; settings: 125 g/ha
Procedure: as §1, §2

[4] = tested on: Phalaris (Pha); test: Pre-emergence herbicidal action, greenhouse pot test: Phalaris; type: in vivo; settings: 125 g/ha
Procedure: as §1, §2

[5] = tested on: Lolium (Lol); test: Pre-emergence herbicidal action, greenhouse pot test: Lolium; type: in vivo; settings: 125 g/ha
Procedure: as §1, §2

[6] = tested on: Setaria (Set); test: Pre-emergence herbicidal action, greenhouse pot test: Setaria; type: in vivo; settings: 125 g/ha
Procedure: as §1, §2

[7] = applied directly after sowing as WP 10, evaluation 20 days after application
[8] = applied directly after sowing as EC 125, evaluation 20 days after application

Row | melting point [°C] | SMILES | Herbicidal action (damage to the plant), Agr [1, 7] [%] | Herbicidal action (damage to the plant), Alo [2, 7] [%] | Herbicidal action (damage to the plant), wheat [3, 7] [%] | Herbicidal action (damage to the plant), Pha [4, 7] [%] | Herbicidal action (damage to the plant), Lol [5, 7] [%] | Herbicidal action (damage to the plant), Set [6, 7] [%] | further results
1 | – | CCCCCCCC/C=C\CCCCCCCCC(C)(C)C(=O)Oc1c(-c2c(CC)cc(C)cc2CC)c(=O)n2n1CCOCC2 [compound 1.05b] | 80 | 80 | 0 | 100 | 70 | 70 | –
2 | – | CCCCCCCC/C=C\CCCCCCCC(=O)Oc1c(-c2c(CC)cc(C)cc2CC)c(=O)n2n1CCOCC2 [compound 1.03] | 98 | 90 | 10 | 100 | 90 | 100 | –
3 | 106 to 107 | CCCCCCCCCCCC(=O)Oc1c(-c2c(CC)cc(C)cc2CC)c(=O)n2n1CCOCC2 [1.01] | – | – | – | – | – | – | –
4 | 91 to 92 | CCCCCCCCCCCCCCCC(=O)Oc1c(-c2c(CC)cc(C)cc2CC)c(=O)n2n1CCOCC2 [1.02] | – | – | – | – | – | – | –
5 | – | CCCCCCCC/C=C\CCCCCCCCC(C)C(=O)Oc1c(-c2c(CC)cc(C)cc2CC)c(=O)n2n1CCOCC2 (centres unmarked) [compound 1.12b] | 95 | 90 | 10 | 100 | 80 | 90 | –
6 | – | CCc1cc(C)cc(CC)c1C1C(=O)N2CCOCCN2C1=O [compound A, 8-(2,6-diethyl-4-methyl-phenyl)-tetrahydropyrazolo[1,2-d][1,4,5]oxadiazepine-7,9-dione, reference compound] | – | – | – | – | – | – | Herbicidal action (damage to the plant), Agr [1, 8]: 95%; Herbicidal action (damage to the plant), Alo [2, 8]: 100%; Herbicidal action (damage to the plant), wheat [3, 8]: 20%; Herbicidal action (damage to the plant), Pha [4, 8]: 100%; Herbicidal action (damage to the plant), Lol [5, 8]: 98%; Herbicidal action (damage to the plant), Set [6, 8]: 100%
